Experimental data taken from patent US20230159445A1, “STAT INHIBITORY COMPOUNDS AND COMPOSITIONS” (JANPIX LIMITED, priority 2020, published 2023).
pIC50: −log10 of the molar value.

Key:
[1] = system: normal human fibroblast (NHF) cells; assay: NHF Cell Cytotoxicity Assay (CellTiter-Blue, 72 h), off-target effects; assay type: cell-based; details: Homo sapiens, Fibroblast; pooled NHF cells
Outline: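 Normal human fibroblasts (1×10^4/well, 10% FBS medium) were treated after 24 h with inhibitor at 0.097656-50 μM for 72 h at 37° C. Viability was read by CellTiter-Blue fluorescence (560/590 nm), normalized to DMSO control, and IC50 obtained from a variable-slope log(inhibitor)-response fit of four replicates.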

MV4-11 cells = assay: MV4-11 Cell Cytotoxicity Assay (CellTiter-Blue, 72 h); assay type: cell-based, human; details: Homo sapiens, MV4-11; MV-4-11 cells
Outline: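 Viability read-out: CellTiter-Blue, 1 h, fluorescence 560/590 nm. Preceded by 72 h exposure (37° C, 5% CO2) to twofold dilution series from 50 μM, triplicate, 0.5% DMSO vehicle, applied 24 h after plating.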

glutathione (GSH) = assay: Reactivity Profiling with Glutathione (GSH), half-life by HPLC; details: 5 mM glutathione (GSH) in IMDM with 10% FBS

## COc1cc(C(=O)O)ccc1N(Cc1cc(C2CC2)cc(C(C)(C)C)c1)C(=O)CN(Cc1ccc(F)cc1Cl)S(=O)(=O)c1c(F)c(F)c(F)c(F)c1F [Compound 1143, 4-(N-(3-(tert-butyl)-5-cyclopropylbenzyl)-2-(N-(2-chloro-4-fluorobenzyl)-(2,3,4,5,6-pentafluorophenyl)sulfon-amido)acetamido)-3-methoxybenzoic acid]
[1]
  pIC50: 4.70 to 5.00
MV4-11 cells
  pIC50: 6.50 to 11.00
Glutathione (GSH)
  half-life at 25 μM: 4.12 to 9.23 h

## COc1cc(C(=O)O)ccc1N(Cc1cc(C2CC2)cc(C(C)(C)C)c1)C(=O)CN(Cc1c(F)cccc1F)S(=O)(=O)c1c(F)c(F)c(F)c(F)c1F [Compound 1145, 4-(N-(3-(tert-butyl)-5-cyclopropylbenzyl)-2-(N-(2,6-difluorobenzyl)-(2,3,4,5,6-pentafluorophenyl)sulfon-amido)acetamido)-3-methoxybenzoic acid]
[1]
  pIC50: 5.00 to 9.00
MV4-11 cells
  pIC50: 6.50 to 11.00
Glutathione (GSH)
  half-life at 25 μM: 2.37 to 4.12 h

## COc1cc(C(=O)O)ccc1N(Cc1cc(C2CC2)cc(C2CC2)c1)C(=O)CN(Cc1cnccc1C(F)(F)F)S(=O)(=O)c1c(F)c(F)c(F)c(F)c1F [Compound 1146, 4-(N-(3,5-dicyclopropylbenzyl)-2-(N-((4-(trifluoromethyl)pyridin-3-yl)methyl)-(2,3,4,5,6-pentafluoro-phenyl)sulfonamido)acetamido)-3-methoxybenzoic acid]
[1]
  pIC50: 5.00 to 9.00
MV4-11 cells
  pIC50: 6.00 to 6.50
Glutathione (GSH)
  half-life at 25 μM: 0.00167 to 2.37 h

## COc1cc(C(=O)O)ccc1N(Cc1cc(C2CC2)cc(C2CC2)c1)C(=O)CN(Cc1c(F)cc(F)cc1F)S(=O)(=O)c1c(F)c(F)c(F)c(F)c1F [Compound 1148, 4-(N-(3,5-dicyclopropylbenzyl)-2-(N-(2,4,6-trifluorobenzyl)-(2,3,4,5,6-pentafluoro-phenyl)sulfonamido)acetamido)-3-methoxybenzoic acid]
[1]
  pIC50: 5.00 to 9.00
MV4-11 cells
  pIC50: 6.50 to 11.00
Glutathione (GSH)
  half-life at 25 μM: 2.37 to 4.12 h

## O=C(O)c1ccc(N(Cc2cc(C3CC3)cc(C3CC3)c2)C(=O)CN(Cc2ncccc2C(F)(F)F)S(=O)(=O)c2c(F)c(F)c(F)c(F)c2F)c(OC2CC2)c1 [Compound 1164, 3-cyclopropoxy-4-(N-(3,5-dicyclopropylbenzyl)-2-(N-((3-(trifluoromethyl)pyridin-2-yl)methyl)-(2,3,4,5,6-pentafluoro-phenyl)sulfonamido)acetamido)benzoic acid]
[1]
  pIC50: 4.52 to 4.70
MV4-11 cells
  pIC50: 6.00 to 6.50
Glutathione (GSH)
  half-life at 25 μM: 4.12 to 9.23 h

## COc1cc(C(=O)O)ccc1N(Cc1cc(C2CC2)cc(C2CC2)c1)C(=O)CN(Cc1ccc(F)cc1Cl)S(=O)(=O)c1c(F)c(F)c(F)c(F)c1F [Compound 1166, 4-(2-(N-(2-chloro-4-fluorobenzyl)-(2,3,4,5,6-pentafluorophenyl)sulfon-amido)-N-(3,5-dicyclopropylbenzyl)acetamido)-3-methoxybenzoic acid]
[1]
  pIC50: 5.00 to 9.00
MV4-11 cells
  pIC50: 6.50 to 11.00
Glutathione (GSH)
  half-life at 25 μM: 2.37 to 4.12 h

## O=C(O)c1ccc(N(Cc2cc(C3CC3)cc(C3CC3)c2)C(=O)CN(Cc2ccc(F)cc2Cl)S(=O)(=O)c2c(F)c(F)c(F)c(F)c2F)c(OC2CC2)c1 [Compound 1167, 4-(2-(N-(2-chloro-4-fluorobenzyl)-(2,3,4,5,6-pentafluorophenyl)sulfon-amido)-N-(3,5-dicyclopropylbenzyl)acetamido)-3-cyclopropoxybenzoic acid]
[1]
  pIC50: 4.70 to 5.00
MV4-11 cells
  pIC50: 6.50 to 11.00
Glutathione (GSH)
  half-life at 25 μM: 4.12 to 9.23 h

## O=C(O)c1ccc(N(Cc2cc(C3CC3)cc(C3CC3)c2)C(=O)CN(Cc2c(F)cc(F)cc2F)S(=O)(=O)c2c(F)c(F)c(F)c(F)c2F)c(OC2CC2)c1 [Compound 1178, 3-cyclopropoxy-4-(N-(3,5-dicyclopropylbenzyl)-2-(N-(2,4,6-trifluorobenzyl)-(2,3,4,5,6-pentafluoro-phenyl)sulfonamido)acetamido)benzoic acid]
[1]
  pIC50: 4.70 to 5.00
MV4-11 cells
  pIC50: 6.50 to 11.00
Glutathione (GSH)
  half-life at 25 μM: 4.12 to 9.23 h

## O=C(O)c1ccc(N(Cc2cc(C3CC3)cc(C3CC3)c2)C(=O)CN(Cc2c(F)c(F)c(F)c(F)c2F)S(=O)(=O)c2c(F)c(F)c(F)c(F)c2F)c(OC2CC2)c1 [Compound 1183, 3-cyclopropoxy-4-(N-(3,5-dicyclopropylbenzyl)-2-(N-((perfluorophenyl)methyl)-(2,3,4,5,6-pentafluoro-phenyl)sulfonamido)acetamido)benzoic acid]
[1]
  pIC50: 5.00 to 9.00
MV4-11 cells
  pIC50: 6.50 to 11.00
Glutathione (GSH)
  half-life at 25 μM: 9.23 to 1670 h

## CC(C)(C)c1cc(CN(C(=O)CN(Cc2cnccc2C(F)(F)F)S(=O)(=O)c2c(F)c(F)c(F)c(F)c2F)c2ccc(C(=O)O)cc2C2CC2)cc(C2CC2)c1 [Compound 1186, 4-(N-(3-(tert-butyl)-5-cyclopropylbenzyl)-2-(N-((4-(trifluoromethyl)pyridin-3-yl)methyl)-(2,3,4,5,6-pentafluoro-phenyl)sulfonamido)acetamido)-3-cyclopropylbenzoic acid]
[1]
  pIC50: 5.00 to 9.00
MV4-11 cells
  pIC50: 6.50 to 11.00
Glutathione (GSH)
  half-life at 25 μM: 2.37 to 4.12 h

## CC(C)(C)c1cc(CN(C(=O)CN(Cc2ccc(F)cc2Cl)S(=O)(=O)c2c(F)c(F)c(F)c(F)c2F)c2ccc(C(=O)O)cc2OC2CC2)cc(C2CC2)c1 [Compound 1189, 4-(N-(3-(tert-butyl)-5-cyclopropylbenzyl)-2-(N-(2-chloro-4-fluorobenzyl)-(2,3,4,5,6-pentafluorophenyl)sulfon-amido)acetamido)-3-cyclopropoxybenzoic acid]
[1]
  pIC50: 4.70 to 5.00
MV4-11 cells
  pIC50: 6.50 to 11.00
Glutathione (GSH)
  half-life at 25 μM: 9.23 to 1670 h

## O=C(O)c1ccc(N(Cc2cc(C3CC3)cc(N3CCCC3)c2)C(=O)CN(Cc2c(F)cc(F)cc2F)S(=O)(=O)c2c(F)c(F)c(F)c(F)c2F)c(OC2CC2)c1 [Compound 1191, 3-cyclopropoxy-4-(N-(3-cyclopropyl-5-(pyrrolidin-1-yl)benzyl)-2-(N-(2,4,6-trifluorobenzyl)-(2,3,4,5,6-pentafluoro-phenyl)sulfonamido)acetamido)benzoic acid]
[1]
  pIC50: 5.00 to 9.00
MV4-11 cells
  pIC50: 6.00 to 6.50
Glutathione (GSH)
  half-life at 25 μM: 9.23 to 1670 h

## O=C(O)c1ccc(N(Cc2cc(C3CC3)cc(N3CCCC3)c2)C(=O)CN(Cc2ccc(F)cc2Cl)S(=O)(=O)c2c(F)c(F)c(F)c(F)c2F)c(OC2CC2)c1 [Compound 1192, 4-(2-(N-(2-chloro-4-fluorobenzyl)-(2,3,4,5,6-pentafluorophenyl)sulfon-amido)-N-(3-cyclopropyl-5-(pyrrolidin-1-yl)benzyl)acetamido)-3-cyclopropoxybenzoic acid]
[1]
  pIC50: 4.70 to 5.00
MV4-11 cells
  pIC50: 6.00 to 6.50
Glutathione (GSH)
  half-life at 25 μM: 9.23 to 1670 h

## O=C(O)c1ccc(N(Cc2cc(C3CC3)cc(C3CC3)c2)C(=O)CN(Cc2cnccc2C(F)(F)F)S(=O)(=O)c2c(F)c(F)c(F)c(F)c2F)c(C2CC2)c1 [Compound 1194, 3-cyclopropyl-4-(N-(3,5-dicyclopropylbenzyl)-2-(N-((4-(trifluoromethyl)pyridin-3-yl)methyl)-(2,3,4,5,6-pentafluoro-phenyl)sulfonamido)acetamido)benzoic acid]
[1]
  pIC50: 5.00 to 9.00
MV4-11 cells
  pIC50: 6.50 to 11.00
Glutathione (GSH)
  half-life at 25 μM: 0.00167 to 2.37 h

## O=C(O)c1ccc(N(Cc2cc(C3CC3)cc(C3CC3)c2)C(=O)CN(Cc2c(F)cc(F)cc2F)S(=O)(=O)c2c(F)c(F)c(F)c(F)c2F)c(C2CC2)c1 [Compound 1195, 3-cyclopropyl-4-(N-(3,5-dicyclopropylbenzyl)-2-(N-(2,4,6-trifluorobenzyl)-(2,3,4,5,6-pentafluoro-phenyl)sulfonamido)acetamido)benzoic acid]
[1]
  pIC50: 5.00 to 9.00
MV4-11 cells
  pIC50: 6.50 to 11.00
Glutathione (GSH)
  half-life at 25 μM: 2.37 to 4.12 h
